From patent US8541576B2, “Substituted pyrazolo-quinazoline derivatives as kinase inhibitors” (Nerviano Medical Sciences SRL, priority 2010, dated 2013) come the findings set out here.

Assay [1] deals with MV-4-11 (biphenotypic B myelomonocytic leukemia) cells. In words: In vitro cell proliferation assay (CellTiter-Glo). It is filed as cell-based. The following applies: Homo sapiens, MV4-11, antiproliferative activity, 72 hours. How it is done: In Vitro Cell Proliferation Assay:
MV-4-11 (biphenotypic B myelomonocytic leukemia) cells (1250 cells/well) were seeded in white 384 well-plates in complete medium (RPMI 1640 or EMEM plus 10% Fetal bovine serum) and treated with compounds dissolved in 0.1% DMSO, 24 h after seeding. The cells were incubated at 37° C. and 5% CO2 and after 72 hours the plates were processed using CellTiter-Glo® assay (Promega) following the manufacturer's instruction. CellTiter-Glo® is a homogenous method based on the quantification of the ATP present, an indicator of metabolically active cells. ATP is quantified using a system based on luciferase and D-luciferin resulting into light generation. The luminescent signal is proportional to the number of cells present in culture.
Briefly 25 μl/well reagent solution was added to each wells and after 5 minutes shacking microplates were red by Envision® (PerkinElmer) luminometer. The luminescent signal was proportional to the number of cells present in culture.
Inhibitory activity was evaluated comparing treated versus control data using Assay Explorer (MDL) program. IC50 was calculated using sigmoidal interpolation curve.

A further assay concerns the target T1, Full-length human PIM-1 (Homo sapiens, UniProt P11309).
T1 construct: Full-length human PIM-1 was expressed and purified; made in house
In words: Biochemical assay for inhibitors of PIM-1 kinase activity (trans-phosphorylation, Dowex resin, 33P-ATP). The settings on record: ATP 200 μM, enzyme 1 nM, Aktide 25 μM. The method, then:
Biochemical assay for inhibitors of PIM-1 kinase activity
The inhibitory activity of putative kinase inhibitors and the potency of selected compounds were determined using a trans-phosphorylation assay.
Specific peptide or protein substrates are trans-phosphorylated by their specific ser-thr or tyr kinase in the presence of ATP traced with ^33P-γ-ATP, and in the presence of their own optimal buffer and cofactors.
At the end of the phosphorylation reaction, more than 98% unlabeled ATP and radioactive ATP is captured by an excess of the ion exchange Dowex® resin; the resin then settles down to the bottom of the reaction plate by gravity.
Supernatant is subsequently withdrawn and transferred into a counting plate, then evaluated by β-counting.
The buffer for PIM-1 assay was composed of HEPES 50 mM, at pH 7.5, with 10 mM MgCl2, 1 mM DTT, 3 μM NaVO3, and 0.2 mg/ml BSA
Full-length human PIM-1 was expressed and purified as described in Bullock A N, et al., J. Biol. Chem. 2005, 280, 41675-82.
1.7 μM PIM1 was incubated 1 hour RT at 28° C. in the presence of 125 μM ATP
ATP concentration: 200 μM
Enzyme concentration: 1 nM
Substrate concentration Aktide (Chemical Abstract Service Registry Number 324029-01-8): 25 μM
The test mix consisted of:
1) 3× Enzyme mix (done in Kinase Buffer 3×), 5 μL/well
2) 3× substrate and ATP mix (done in ddH2O), together with ^33P-γ-ATP, 5 μL/well
3) 3× test compounds (diluted into ddH2O—3% DMSO)-5 μL/well
For IC50 determination, test compounds are received as a 1 mM solution in 100% DMSO and distributed into 96-well plates: compounds are then plated into the first column of a new 96-well plate (A1 to G1), 100 μl/well.
An automated station (Biomek FX®, Beckman) is used for serial dilutions, producing 1:3 dilutions in 100% DMSO, from line A1 to A10, for all the compounds in the column. Moreover, 4-5 copies of daughter plates are prepared by reformatting 5 μL of this first set of 100% DMSO dilution plates into 384-deep well plates: one copy of these serial dilution plates with the test compounds is thawed on the day of study, reconstituted at the working concentration (3-fold the final concentration) with 162 μL/well of water and used for IC50 determination assays. In a standard experiment, the highest concentration (3×) of compounds is typically 30 μM, while the lowest one is typically 1.5 nM.
Each 384-well plate generates at least one curve of the standard inhibitor staurosporine and reference wells (total enzyme activity vs. no enzymatic activity) for evaluation of Z′ and signal to background (S/B) ratio.
384-well plates, V bottom (test plates) are prepared with 5 μl of compound diluted as previously described (3×) and then placed onto a PlateTrak® 12 robotized station (Perkin Elmer; the robot has one 384-tip pipetting head for assay start, plus one 96-tip head for dispensing resin) together with one reservoir for Enzyme mix (3×) and one for ATP mix (3×).
Data are analyzed by an internally customized version of the “Assay Explorer®” SW package, which provides sigmoidal fitting of the ten-dilution curves for IC50 determination in secondary assay/hit confirmation routines.

Another assay concerns the target T2, Full-length human PIM-2 (Homo sapiens, UniProt Q9P1W9).
T2 construct: Full-length human PIM-2 was expressed and purified; made in house
Put plainly: PIM-2 kinase inhibition assay: Dowex technique. It is filed as biochemical. The following applies: ATP 4 μM, enzyme 1.5 nM, Aktide 5 μM. The method, then:
Method for PIM-2 Kinase Inhibition Assay: Dowex Technique
The buffer for PIM-2 assay was composed of HEPES 50 mM, at pH 7.5, with 1 mM MgCl2, 1 mM DTT, 3 μM Na3VO4, and 0.2 mg/ml BSA
Full-length human PIM-2 was expressed and purified as described in Fedorov O, et al. (2007) PNAS 104, 51, 20523-28.
Assay Conditions (Final Concentrations):
Enzyme concentration=1.5 nM
Aktide substrate (Chemical Abstract Service Registry Number 324029-01-8)=5 μM
See above: same procedure as described for PIM-1.

T2 sequence (Q9P1W9 whole entry): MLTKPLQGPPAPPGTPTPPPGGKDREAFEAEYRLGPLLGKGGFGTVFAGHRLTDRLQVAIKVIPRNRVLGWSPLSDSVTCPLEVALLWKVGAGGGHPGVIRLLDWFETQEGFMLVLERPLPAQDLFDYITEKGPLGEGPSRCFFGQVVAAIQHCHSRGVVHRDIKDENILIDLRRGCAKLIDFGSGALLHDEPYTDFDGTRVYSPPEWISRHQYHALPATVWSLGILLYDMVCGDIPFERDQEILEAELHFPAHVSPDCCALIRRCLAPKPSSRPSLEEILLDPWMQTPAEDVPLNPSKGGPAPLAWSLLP
T1 sequence (P11309 whole entry): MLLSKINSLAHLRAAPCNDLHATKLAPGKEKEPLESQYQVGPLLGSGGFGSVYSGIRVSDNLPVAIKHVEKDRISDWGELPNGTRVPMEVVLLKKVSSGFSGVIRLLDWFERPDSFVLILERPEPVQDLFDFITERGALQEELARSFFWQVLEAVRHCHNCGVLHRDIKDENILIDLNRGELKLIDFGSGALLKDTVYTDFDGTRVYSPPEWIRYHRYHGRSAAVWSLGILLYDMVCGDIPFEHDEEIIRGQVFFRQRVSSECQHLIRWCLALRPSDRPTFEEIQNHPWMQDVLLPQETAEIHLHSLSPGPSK

As to `COc1ncc2ccc3c(C(N)=O)nn(C4CCNCC4)c3c2n1` [Compound 97, 8-methoxy-1-(piperidin-4-yl)-1H-pyrazolo[4,3-h]quinazoline-3-carboxamide], the IC50 in assay [1] came to 294 nM; against Full-length human PIM-1, 154 nM; against Full-length human PIM-2, 271 nM.
In the case of `CN1CCN(c2ccc(Oc3ncc4ccc5c(C(N)=O)nn(CCO)c5c4n3)cc2)CC1` [Compound 46, 1-(2-hydroxyethyl)-8-[4-(4-methylpiperazin-1-yl)phenoxy]-1H-pyrazolo[4,3-h]quinazoline-3-carboxamide], the IC50 is 673 nM in assay [1], 81 nM on Full-length human PIM-1 and 1300 nM against Full-length human PIM-2.
In the case of `CN(C)c1ncc2ccc3c(C(N)=O)nn(C(C)(C)C)c3c2n1` [Compound 52, 1-tert-butyl-8-(dimethylamino)-1H-pyrazolo[4,3-h]quinazoline-3-carboxamide], the concentration for half-maximal inhibition (IC50) in assay [1] amounted to 866 nM; at Full-length human PIM-1 it was 13 nM; on Full-length human PIM-2, 21 nM.
As to `CSc1ncc2ccc3c(C(N)=O)nn(C4CCOCC4)c3c2n1` [Compound 104, 8-(methylsulfanyl)-1-(tetrahydro-2H-pyran-4-yl)-1H-pyrazolo[4,3-h]quinazoline-3-carboxamide], the figures for the IC50 (in assay [1]; against Full-length human PIM-1; against Full-length human PIM-2) were 185 nM, 14 nM and 35 nM, respectively.
As for `CSc1ncc2ccc3c(C(N)=O)nn(C)c3c2n1` [Compound 87, 1-methyl-8-(methylsulfanyl)-1H-pyrazolo[4,3-h]quinazoline-3-carboxamide], the IC50 came to 1940 nM in assay [1], 123 nM on Full-length human PIM-1 and 888 nM against Full-length human PIM-2.
With `CSc1ncc2ccc3c(C(N)=O)nn([C@H]4C[C@@H](CO)C4)c3c2n1` [Compound 106, 1-[cis-3-(hydroxymethyl)cyclobutyl]-8-(methylsulfanyl)-1H-pyrazolo[4,3-h]quinazoline-3-carboxamide], the IC50 in assay [1] stood at 21 nM; on Full-length human PIM-1, 3 nM; against Full-length human PIM-2, 13 nM.
With `CC(=O)c1cc(N2CCNCC2)ccc1Oc1ncc2ccc3c(C(N)=O)nn(C)c3c2n1` [Compound 38, 8-[2-acetyl-4-(piperazin-1-yl)phenoxy]-1-methyl-1H-pyrazolo[4,3-h]quinazoline-3-carboxamide], the IC50 in assay [1] amounted to 308 nM; against Full-length human PIM-1 it was 20 nM; on Full-length human PIM-2, 527 nM.
Consider `CSc1ncc2ccc3c(C(N)=O)nn(C4CCNCC4)c3c2n1` [Compound 91, 8-(methylsulfanyl)-1-(piperidin-4-yl)-1H-pyrazolo[4,3-h]quinazoline-3-carboxamide], for which the results for the IC50 (in assay [1]; against Full-length human PIM-1; on Full-length human PIM-2) were 1440 nM, 19 nM and 46 nM, respectively.
`CSc1ncc2ccc3c(C(N)=O)nn([C@H]4C[C@H](CO)C4)c3c2n1` [Compound 105, 1-[trans-3-(hydroxymethyl)cyclobutyl]-8-(methylsulfanyl)-1H-pyrazolo[4,3-h]quinazoline-3-carboxamide]: the IC50 in assay [1] is 16.8 nM; against Full-length human PIM-1 it was 3 nM; at Full-length human PIM-2 it was 14 nM.
For `CSc1ncc2ccc3c(C(N)=O)nn(CCO)c3c2n1` [Compound 1, 1-(2-hydroxyethyl)-8-(methylsulfanyl)-1H-pyrazolo[4,3-h]quinazoline-3-carboxamide], in that order: 992 nM, 50 nM and 221 nM.
Turning to `CSc1ncc2ccc3c(C(N)=O)nn(C4CCCNC4)c3c2n1` (centres unmarked) [Compound 92, 8-(methylsulfanyl)-1-(piperidin-3-yl)-1H-pyrazolo[4,3-h]quinazoline-3-carboxamide], the IC50 in assay [1] is 147 nM; against Full-length human PIM-1, 22 nM; against Full-length human PIM-2, 21 nM.
As for `NC(=O)c1nn(C2CCC(N)CC2)c2c1ccc1cnc(-c3ccccc3)nc12` (centres unmarked) [Compound 111, 1-(4-aminocyclohexyl)-8-phenyl-1H-pyrazolo[4,3-h]quinazoline-3-carboxamide], the IC50 against Full-length human PIM-1 stood at 400 nM; at Full-length human PIM-2, 210 nM.
For the molecule `CN1CCN(c2ccc(Oc3ncc4ccc5c(C(N)=O)nn(C)c5c4n3)c(Br)c2)CC1` [Compound 29, 8-[2-bromo-4-(4-methylpiperazin-1-yl)phenoxy]-1-methyl-1H-pyrazolo[4,3-h]quinazoline-3-carboxamide], the IC50 came out at 758 nM in assay [1], 21 nM against Full-length human PIM-1 and 2400 nM on Full-length human PIM-2.
Consider `CSc1ncc2ccc3c(C(N)=O)nn([C@@H]4C[C@H]5CC[C@@H](C4)N5)c3c2n1` [Compound 99, 1-[(3-exo)-8-azabicyclo[3.2.1]oct-3-yl]-8-(methylsulfanyl)-1H-pyrazolo[4,3-h]quinazoline-3-carboxamide], for which the values for the IC50 (in assay [1]; against Full-length human PIM-1; against Full-length human PIM-2) were 102 nM, 16 nM and 33 nM, respectively.
In the case of `Cn1nc(C(N)=O)c2ccc3cnc(Oc4ccc(N5CCNCC5)cc4)nc3c21` [Compound 27, 1-methyl-8-[4-(piperazin-1-yl)phenoxy]-1H-pyrazolo[4,3-h]quinazoline-3-carboxamide], the IC50 in assay [1] worked out at 308 nM; at Full-length human PIM-1 it was 4 nM; at Full-length human PIM-2 it was 498 nM.
As for `CC(=O)c1cc(N2CCN(C)CC2)ccc1Oc1ncc2ccc3c(C(N)=O)nn(C)c3c2n1` [Compound 37, 8-[2-acetyl-4-(4-methylpiperazin-1-yl)phenoxy]-1-methyl-1H-pyrazolo[4,3-h]quinazoline-3-carboxamide], the IC50 is 4120 nM against Full-length human PIM-1 and more than 1000 nM against Full-length human PIM-2.
In the case of `CNC(=O)c1nn(C(C)(C)C)c2c1ccc1cnc(SC)nc12` [Compound 7, 1-tert-butyl-N-methyl-8-(methylsulfanyl)-1H-pyrazolo[4,3-h]quinazoline-3-carboxamide], the results for the IC50 (in assay [1]; against Full-length human PIM-1; at Full-length human PIM-2) were 1760 nM, 41 nM and 156 nM, respectively.
Take `Cn1nc(C(N)=O)c2c1-c1nc(N3CCCCC3)ncc1CC2` [Ref. Compound 1, 1-methyl-8-(piperidin-1-yl)-4,5-dihydro-1H-pyrazolo[4,3-h]quinazoline-3-carboxamide, reference compound]: the IC50 at Full-length human PIM-1 and against Full-length human PIM-2 was more than 10000 nM throughout.
Turning to `CSc1ncc2c(n1)-c1c(c(C(N)=O)nn1C1CCNCC1)CC2` [Compound 72, 8-(methylsulfanyl)-1-(piperidin-4-yl)-4,5-dihydro-1H-pyrazolo[4,3-h]quinazoline-3-carboxamide], the IC50 came to 1780 nM in assay [1], 270 nM against Full-length human PIM-1 and 313 nM on Full-length human PIM-2.
Consider `CSc1ncc2c(n1)-c1c(c(C(N)=O)nn1C)CC2` [Ref. Compound 2, 1-methyl-8-(methylsulfanyl)-4,5-dihydro-1H-pyrazolo[4,3-h]quinazoline-3-carboxamide, reference compound], for which the values for the IC50 against Full-length human PIM-1 and against Full-length human PIM-2 were 1010 nM and more than 10000 nM, respectively.
